Measured values published in patent US20110257168A1, “DERIVATIVES OF OXABISPIDINE AS NEURONAL NICOTINIC ACETYLCHOLINE RECEPTOR LIGANDS” (Targacept, Inc., priority 2008, published 2011).

What follows are compounds tested against T1, Rat α4β2 (Rattus norvegicus, UniProt P09483+P12390) (assay: Competition binding to rat α4β2 receptors in membrane preparations). Conditions: not given.
T1 construct: Preparation of membranes from rat tissues; Rat cortices were obtained from Analytical Biological Services; tissue Analytical Biological Services, Incorporated (ABS, Wilmington, Del.); host or cells: rat cortex membranes (female Sprague-Dawley)
Protocol: (§1) Preparation of membranes from rat tissues. Rat cortices were obtained from Analytical Biological Services, Incorporated (ABS, Wilmington, Del.). Tissues were dissected from female Sprague-Dawley rats, frozen and shipped on dry ice. Tissues were stored at −20° C. until needed for membrane preparation. Cortices from 10 rats were pooled and homogenized by Polytron (Kinematica GmbH, Switzerland) in 10 volumes (weight:volume) of ice-cold preparative buffer (KCl, 11 mM; KH2PO4, 6 mM; NaCl 137 mM; Na2HPO4 8 mM; HEPES (free acid), 20 mM; iodoacetamide, 5 mM; EDTA, 1.5 mM; 0.1 mM PMSF pH 7.4). The resulting homogenate was centrifuged at 40,000 g for 20 minutes at 4° C. and the resulting pellet was resuspended in 20 volumes of ice-cold water. After 60-minute incubation at 4° C., a new pellet was collected by centrifugation at 40,000 g for 20 minutes at 4° C. The final pellet was resuspended in preparative buffer and stored at −20° C. On the day of the assay, tissue was thawed, centrifuged at 40,000 g for 20 minutes and then resuspended in PBS (Dulbecco's Phosphate Buffered Saline, Life Technologies, pH 7.4) to a final concentration of 2-3 mg protein/mL. Protein concentrations were determined using the Pierce BCA Protein Assay kit (Pierce Biotechnology, Rockford, Ill.), with bovine serum albumin as the standard. Preparation of membranes from clonal cell lines. Cells were harvested in ice-cold PBS, pH 7.4, then homogenized with a polytron (Brinkmann Instruments, Westbury, N.Y.). Homogenates were centrifuged at 40,000 g for 20 minutes (4° C.). The pellet was resuspended in PBS and protein concentration determined using the Pierce BCA Protein Assay kit (Pierce Biotechnology, Rockford, Ill.).
(§2) Competition binding to receptors in membrane preparations. Binding to nicotinic receptors was assayed on membranes using standard methods adapted from published procedures (Lippiello and Fernandes, 1986; Davies et al., 1999). In brief, membranes were reconstituted from frozen stocks (approximately 0.2 mg protein) and incubated for 2 h on ice in […] assay buffer (PBS) in the presence of competitor compound (0.001 nM to […]) and radioligand. [^3H]-nicotine (L-(−)-[N-methyl-3H]-nicotine, 69.5 Ci/mmol, Perkin-Elmer Life Sciences) was used for human α4β2 binding studies. [^3H]-epibatidine (52 Ci/mmol, Perkin-Elmer Life Sciences) was used for binding studies at the other receptor subtypes. Incubation was terminated by rapid filtration on a multimanifold tissue harvester (Brandel, Gaithersburg, Md.) using GF/B filters presoaked in 0.33% polyethyleneimine (w/v) to reduce non-specific binding. Filters were washed 3 times and the radioactivity retained was determined by liquid scintillation counting.
(§3) Binding data analysis. Binding data were expressed as percent total control binding. Replicates for each point were averaged and plotted against the log of drug concentration. The IC50 (concentration of the compound that produces 50% inhibition of binding) was determined by least squares non-linear regression using GraphPad Prism software (GraphPAD, San Diego, Calif.). Ki was calculated using the Cheng-Prusoff equation (Cheng and Prusoff, 1973).

Structure (SMILES)	Ki [nM]
c1cc2cc(N3CC4CNCC(C3)O4)cnc2o1 [3-(furo[2,3-b]pyridin-5-yl)-9-oxa-3,7-diazabicyclo[3.3.1]nonane]	23
c1cc2ncc(N3CC4CNCC(C3)O4)cc2o1 [3-(furo[3,2-b]pyridin-6-yl)-9-oxa-3,7-diazabicyclo[3.3.1]nonane]	91

Same assay, conditions: membranes, [3H]-epibatidine competition; Ki by Cheng-Prusoff; read-out: Rat α4β2 Ki

Structure (SMILES)	Ki [nM]
Clc1cc(N2CC3CNCC(C2)O3)cnc1Cl [3-(5,6-dichloropyridin-3-yl)-9-oxa-3,7-diazabicyclo[3.3.1]nonane]	0.7
FC(F)Oc1cncc(N2CC3CNCC(C2)O3)c1 [3-(5-(difluoromethoxy)pyridin-3-yl)-9-oxa-3,7-diazabicyclo[3.3.1]nonane]	0.36
Clc1cncc(N2CC3CNCC(C2)O3)c1 [3-(5-chloropyridin-3-yl)-9-oxa-3,7-diazabicydo[3.3.1]nonane]	2.1
CN1CC2CN(c3cncc(F)c3)CC(C1)O2 [3-(5-fluoropyridin-3-yl)-7-methyl-9-oxa-3,7-diazabicyclo[3.3.1]nonane]	280
COc1cc(N2CC3CNCC(C2)O3)cnc1F [3-(5-methoxy-6-fluoropyridin-3-yl)-9-oxa-3,7-diazabicyclo[3.3.1]nonane]	1.1
Cc1cncc(N2CC3CN(C)CC(C2)O3)c1 [3-(5-methylpyridin-3-yl)-7-methyl-9-oxa-3,7-diazabicyclo[3.3.1]nonane]	370
Clc1ccc(N2CC3CNCC(C2)O3)nn1 [3-(6-chloropyridazin-3-yl)-9-oxa-3,7-diazabicyclo[3.3.1]nonane]	96
N#Cc1ccc(N2CC3CNCC(C2)O3)cn1 [3-(6-cyanopyridin-3-yl)-9-oxa-3,7-diazabicyclo[3.3.1]nonane]	290
Cc1ccc(N2CC3CNCC(C2)O3)cn1 [3-(6-methylpyridin-3-yl)-9-oxa-3,7-diazabicydo[3.3.1]nonane]	30
FC(F)(F)c1ccc(N2CC3CNCC(C2)O3)cn1 [3-(6-trifluoromethylpyridin-3-yl)-9-oxa-3,7-diazabicyclo[3.3.1]nonane]	48
c1cnc(N2CC3CNCC(C2)O3)cn1 [3-(pyrazin-2-yl)-9-oxa-3,7-diazabicyclo[3.3.1]nonane]	250
CN1CC2CN(c3cccnc3)CC(C1)O2 [3-methyl-7-(pyridin-3-yl)-9-oxa-3,7-diazabicyclo[3.3.1]nonane]	180

What follows are compounds tested against human α4β2 (Homo sapiens, UniProt P17787+P43681) (assay: Competition binding to human α4β2 receptors in membrane preparations). Conditions: not given.
Protocol: (§4) SH-EP1/human α4β2 (Eaton et al., 2003), SH-EP1/human α4β4 (Gentry et al., 2003), SH-EP1/α6β3β4α5 (Grinevich et al., 2005), TE671/RD and SH-SY5Y cell lines (obtained from Dr. Ron Lukas, Barrow Neurological Institute) were maintained in proliferative growth phase in Dulbecco's modified Eagle's medium (Gibco/BRL) with 10% horse serum (Gibco BRL), 5% fetal bovine serum (HyClone, Logan Utah), 1 mM sodium pyruvate, 4 mM L-glutamine. For maintenance of stable transfectants, the α4β2 and α4β4 cell media was supplemented with 0.25 mg/mL zeocin and 0.13 mg/mL hygromycin B. Selection was maintained for the α6β3β4α5 cells with 0.25 mg/mL of zeocin, 0.13 mg/mL of hygromycin B, 0.4 mg/mL of geneticin, and 0.2 mg/mL of blasticidin. HEK/human α7/RIC3 cells (obtained from J. Lindstrom, U. Pennsylvania) were maintained in proliferative growth phase in Dulbecco's modified Eagle's medium (Gibco/BRL) with 10% fetal bovine serum (HyClone, Logan Utah), 1 mM sodium pyruvate, 4 mM L-glutamine, 0.4 mg/mL geneticin; 0.2 mg/ml hygromycin B.
as §1, §2
(§5) Binding data analysis. Binding data were expressed as percent total control binding. Replicates for each point were averaged and plotted against the log of drug concentration. […]

Structure (SMILES)	Ki [nM]
Clc1cc(N2CC3CNCC(C2)O3)cnc1Cl [3-(5,6-dichloropyridin-3-yl)-9-oxa-3,7-diazabicyclo[3.3.1]nonane]	0.3
FC(F)Oc1cncc(N2CC3CNCC(C2)O3)c1 [3-(5-(difluoromethoxy)pyridin-3-yl)-9-oxa-3,7-diazabicyclo[3.3.1]nonane]	0.42
Clc1cncc(N2CC3CNCC(C2)O3)c1 [3-(5-chloropyridin-3-yl)-9-oxa-3,7-diazabicydo[3.3.1]nonane]	1
COc1cc(N2CC3CNCC(C2)O3)cnc1F [3-(5-methoxy-6-fluoropyridin-3-yl)-9-oxa-3,7-diazabicyclo[3.3.1]nonane]	0.43
Clc1ccc(N2CC3CNCC(C2)O3)nn1 [3-(6-chloropyridazin-3-yl)-9-oxa-3,7-diazabicyclo[3.3.1]nonane]	63
Cc1ccc(N2CC3CNCC(C2)O3)cn1 [3-(6-methylpyridin-3-yl)-9-oxa-3,7-diazabicydo[3.3.1]nonane]	4.9
FC(F)(F)c1ccc(N2CC3CNCC(C2)O3)cn1 [3-(6-trifluoromethylpyridin-3-yl)-9-oxa-3,7-diazabicyclo[3.3.1]nonane]	6.8

Same assay, conditions: membranes, [3H]-nicotine competition; Ki by Cheng-Prusoff; read-out: human α4β2 Ki

Structure (SMILES)	Ki [nM]
CN1CC2CN(c3cncc(F)c3)CC(C1)O2 [3-(5-fluoropyridin-3-yl)-7-methyl-9-oxa-3,7-diazabicyclo[3.3.1]nonane]	33
Cc1cncc(N2CC3CN(C)CC(C2)O3)c1 [3-(5-methylpyridin-3-yl)-7-methyl-9-oxa-3,7-diazabicyclo[3.3.1]nonane]	25
N#Cc1ccc(N2CC3CNCC(C2)O3)cn1 [3-(6-cyanopyridin-3-yl)-9-oxa-3,7-diazabicyclo[3.3.1]nonane]	42
c1cc2cc(N3CC4CNCC(C3)O4)cnc2o1 [3-(furo[2,3-b]pyridin-5-yl)-9-oxa-3,7-diazabicyclo[3.3.1]nonane]	48
c1cc2ncc(N3CC4CNCC(C3)O4)cc2o1 [3-(furo[3,2-b]pyridin-6-yl)-9-oxa-3,7-diazabicyclo[3.3.1]nonane]	50
c1cnc(N2CC3CNCC(C2)O3)cn1 [3-(pyrazin-2-yl)-9-oxa-3,7-diazabicyclo[3.3.1]nonane]	37
CN1CC2CN(c3cccnc3)CC(C1)O2 [3-methyl-7-(pyridin-3-yl)-9-oxa-3,7-diazabicyclo[3.3.1]nonane]	95

What follows are compounds tested against T2, Rat α7 (Rattus norvegicus, UniProt Q05941) (assay: Competition binding to rat α7 receptors in membrane preparations). Conditions: membranes, [3H]-epibatidine competition; Ki by Cheng-Prusoff; read-out: Rat α7 Ki.
T2 construct: Preparation of membranes from rat tissues; Rat cortices were obtained from Analytical Biological Services; tissue Analytical Biological Services, Incorporated (ABS, Wilmington, Del.); host or cells: rat brain membranes (only cortex is described)
Protocol: as §1, §2, §3

Structure (SMILES)	Ki [nM]
Clc1cc(N2CC3CNCC(C2)O3)cnc1Cl [3-(5,6-dichloropyridin-3-yl)-9-oxa-3,7-diazabicyclo[3.3.1]nonane]	84
Clc1cncc(N2CC3CNCC(C2)O3)c1 [3-(5-chloropyridin-3-yl)-9-oxa-3,7-diazabicydo[3.3.1]nonane]	370

Each compound was assayed against T3, Human α7 (Homo sapiens, UniProt P36544) (assay: Competition binding to human α7 receptors in membrane preparations). Conditions: membranes, [3H]-epibatidine competition; Ki by Cheng-Prusoff; read-out: Human α7 Ki.
T3 construct: host or cells: HEK cells co-expressing RIC3
Protocol: as §4, §1, §2, §5

Structure (SMILES)	Ki [nM]
Clc1cc(N2CC3CNCC(C2)O3)cnc1Cl [3-(5,6-dichloropyridin-3-yl)-9-oxa-3,7-diazabicyclo[3.3.1]nonane]	39
FC(F)Oc1cncc(N2CC3CNCC(C2)O3)c1 [3-(5-(difluoromethoxy)pyridin-3-yl)-9-oxa-3,7-diazabicyclo[3.3.1]nonane]	1600
Clc1cncc(N2CC3CNCC(C2)O3)c1 [3-(5-chloropyridin-3-yl)-9-oxa-3,7-diazabicydo[3.3.1]nonane]	180
CN1CC2CN(c3cncc(F)c3)CC(C1)O2 [3-(5-fluoropyridin-3-yl)-7-methyl-9-oxa-3,7-diazabicyclo[3.3.1]nonane]	2100
COc1cc(N2CC3CNCC(C2)O3)cnc1F [3-(5-methoxy-6-fluoropyridin-3-yl)-9-oxa-3,7-diazabicyclo[3.3.1]nonane]	1000
Cc1cncc(N2CC3CN(C)CC(C2)O3)c1 [3-(5-methylpyridin-3-yl)-7-methyl-9-oxa-3,7-diazabicyclo[3.3.1]nonane]	8700
Clc1ccc(N2CC3CNCC(C2)O3)nn1 [3-(6-chloropyridazin-3-yl)-9-oxa-3,7-diazabicyclo[3.3.1]nonane]	1300
N#Cc1ccc(N2CC3CNCC(C2)O3)cn1 [3-(6-cyanopyridin-3-yl)-9-oxa-3,7-diazabicyclo[3.3.1]nonane]	8100
Cc1ccc(N2CC3CNCC(C2)O3)cn1 [3-(6-methylpyridin-3-yl)-9-oxa-3,7-diazabicydo[3.3.1]nonane]	600
FC(F)(F)c1ccc(N2CC3CNCC(C2)O3)cn1 [3-(6-trifluoromethylpyridin-3-yl)-9-oxa-3,7-diazabicyclo[3.3.1]nonane]	1900
c1cc2cc(N3CC4CNCC(C3)O4)cnc2o1 [3-(furo[2,3-b]pyridin-5-yl)-9-oxa-3,7-diazabicyclo[3.3.1]nonane]	6600
c1cc2ncc(N3CC4CNCC(C3)O4)cc2o1 [3-(furo[3,2-b]pyridin-6-yl)-9-oxa-3,7-diazabicyclo[3.3.1]nonane]	5700
c1cnc(N2CC3CNCC(C2)O3)cn1 [3-(pyrazin-2-yl)-9-oxa-3,7-diazabicyclo[3.3.1]nonane]	2200
CN1CC2CN(c3cccnc3)CC(C1)O2 [3-methyl-7-(pyridin-3-yl)-9-oxa-3,7-diazabicyclo[3.3.1]nonane]	5900
